Experimental data as given in ChEMBL document CHEMBL5131385, “Novel piperazine based benzamide derivatives as potential anti-glioblastoma agents inhibiting cell proliferation and cell cycle progression” (Eur J Med Chem, 2022).
Calls of active or inactive are those of the source. The calls are words filed in the database; no cut-off is given here.

What was measured:
[1] = system: U-251; experiment: Antiproliferative activity against human U-251 cells assessed as inhibition of cell proliferation measured after 72 hrs by CCK8 assay; assay type: functional, cell-based; settings: U-251, 72 h
[2] = system: U-87MG ATCC; experiment: Antiproliferative activity against human U-87 MG cells assessed as inhibition of cell proliferation and measured upto 72 hrs by CCK8 assay; assay type: functional, cell-based; settings: TDE = time-dependent effect
[3] = system: U-87MG ATCC; experiment: Antiproliferative activity against human U-87 MG cells assessed as release of LDH in supernatant and measured after 72 hrs by microplate reader assay; assay type: functional, cell-based; settings: DDE = dose-dependent effect
[4] = system: U-251; experiment: Antiproliferative activity against human U-251 cells assessed as release of LDH in supernatant and measured after 72 hrs by microplate reader assay; assay type: functional, cell-based; settings: DDE = dose-dependent effect
[5] = system: U-251; experiment: Antiproliferative activity against human U-251 cells assessed as reduction in colony number at 0.25 to 1 uM for 2 to 3 weeks by crystal violet staining based plate clone formation assay; assay type: functional, cell-based; settings: dose 0.25-1 µM, time 2-3 weeks, DDE = dose-dependent effect
[6] = system: U-87MG ATCC; experiment: Antiproliferative activity against human U-87 MG cells assessed as reduction in colony number at 0.125 to 0.5 uM for 2 to 3 weeks by crystal violet staining based plate clone formation assay; assay type: functional, cell-based; settings: dose 0.125-0.5 µM, time 2-3 weeks, DDE = dose-dependent effect
[7] = system: U-87MG ATCC; experiment: Induction of apoptosis in human U-87 MG cells assessed as formation of spindle shaped cells at 0.075 to 1.20 uM measured after 72 hrs by Giemsa staining based microscopic analysis; assay type: functional, cell-based; settings: dose 0.075-1.2 µM
[8] = Induction of apoptosis in human U-87 MG cells assessed as viable cells at 1.20 uM incubated for 72 hrs by Annexin V-FITC/PI staining based flow cytometry method (reference value: 96.84 %); assay type: functional, U-87MG ATCC; settings: read-out: Activity
[9] = Induction of apoptosis in human U-87 MG cells assessed as late apoptotic cells at 1.20 uM incubated for 72 hrs by Annexin V-FITC/PI staining based flow cytometry method (reference value: 0.42 %); assay type: functional, U-87MG ATCC; settings: dose 1.2 µM
[10] = Induction of apoptosis in human U-87 MG cells assessed as necrotic cells at 1.20 uM incubated for 72 hrs by Annexin V-FITC/PI staining based flow cytometry method (reference value: 0.21 %); assay type: functional, U-87MG ATCC; settings: dose 1.2 µM
[11] = Induction of apoptosis in human U-87 MG cells assessed as early apoptotic cells at 0.075 uM incubated for 72 hrs by Annexin V-FITC/PI staining based flow cytometry method (reference value: 2.53 %); assay type: functional, U-87MG ATCC
[12] = Induction of apoptosis in human U-87 MG cells assessed as necrotic cells at 0.075 uM incubated for 72 hrs by Annexin V-FITC/PI staining based flow cytometry method (reference value: 0.21 %); assay type: functional, U-87MG ATCC
[13] = Induction of apoptosis in human U-87 MG cells assessed as late apoptotic cells at 0.30 uM incubated for 72 hrs by Annexin V-FITC/PI staining based flow cytometry method (reference value: 0.42 %); assay type: functional, U-87MG ATCC; settings: dose 0.3 µM
[14] = Induction of apoptosis in human U-87 MG cells assessed as necrotic cells at 0.30 uM incubated for 72 hrs by Annexin V-FITC/PI staining based flow cytometry method (reference value: 0.21 %); assay type: functional, U-87MG ATCC; settings: dose 0.3 µM
[15] = system: U-251; experiment: Induction of apoptosis in human U-251 cells assessed as early apoptotic cells at 6 uM incubated for 72 hrs by Annexin V-FITC/PI staining based flow cytometry method (Rvb =1.96 %); assay type: functional
[16] = system: U-251; experiment: Induction of apoptosis in human U-251 cells assessed as viable cells at 0.375 uM incubated for 72 hrs by Annexin V-FITC/PI staining based flow cytometry method (reference value: 96.22 %); assay type: functional; settings: read-out: Activity
[17] = system: U-251; experiment: Induction of apoptosis in human U-251 cells assessed as late apoptotic cells at 0.375 uM incubated for 72 hrs by Annexin V-FITC/PI staining based flow cytometry method (Rvb =1.31 %); assay type: functional
[18] = system: U-251; experiment: Induction of apoptosis in human U-251 cells assessed as viable cells at 1.50 uM incubated for 72 hrs by Annexin V-FITC/PI staining based flow cytometry method (reference value: 96.22 %); assay type: functional; settings: read-out: Activity
[19] = system: U-251; experiment: Induction of apoptosis in human U-251 cells assessed as early apoptotic cells at 1.50 uM incubated for 72 hrs by Annexin V-FITC/PI staining based flow cytometry method (Rvb =1.96 %); assay type: functional; settings: dose 1.5 µM
[20] = system: U-87MG ATCC; experiment: Induction of cell cycle arrest in human U-87 MG cells assessed as decrease in accumulation at S phase at 0.075 to 1.20 uM measured after 72 hrs by flow cytometry; assay type: functional, cell-based; settings: dose 0.075-1.2 µM, DDE = dose-dependent effect
[21] = system: U-251; experiment: Induction of cell cycle arrest in human U-251 cells assessed as decrease in accumulation at G2/M phase at 0.75 to 3 uM measured after 72 hrs by flow cytometry; assay type: functional, cell-based; settings: dose 0.75-3 µM, DDE = dose-dependent effect
[22] = system: U-87MG ATCC; experiment: Antimigratory activity in human U-87 MG cells assessed as inhibition of cell migration by measuring wound closure at 0.125 to 0.50 uM and measured after 24 hrs by wound healing assay; assay type: functional, cell-based; settings: dose 0.125-0.5 µM, DDE = dose-dependent effect
[23] = system: U-87MG ATCC; experiment: Antimigratory activity in human U-87 MG cells assessed as inhibition of cell migration by measuring wound closure at 0.125 to 0.50 uM and measured after 24 hrs by transwell migration assay; assay type: functional, cell-based; settings: dose 0.125-0.5 µM, DDE = dose-dependent effect
[24] = system: U-251; experiment: Antimigratory activity in human U-251 cells assessed as inhibition of cell migration by measuring wound closure at 0.25 to 1.0 uM and measured after 24 hrs by transwell migration assay; assay type: functional, cell-based; settings: dose 0.25-1 µM, DDE = dose-dependent effect
[25] = system: U-251; experiment: Antiinvasive activity against human U-251 cells assessed as inhibition of cell invasion at 0.25 to 1.0 uM measured after 24 hrs by transwell invasion assay; assay type: functional, cell-based; settings: dose 0.25-1 µM, DDE = dose-dependent effect
[26] = Cmax in Sprague-Dawley rat brain at 100 mg/kg, ip and measured upto 240 mins by LC-MS analysis; assay type: ADME, organism-based; set-up: time < 240 min, dose 100 mg/kg, route ip
[27] = AUC (0 to t) in Sprague-Dawley rat brain at 100 mg/kg, ip and measured upto 240 mins by LC-MS analysis; assay type: ADME, organism-based; set-up: dose 100 mg/kg, time < 240 min, route ip
[28] = Ratio of drug level in Sprague-Dawley rat brain to plasma at 100 mg/kg, ip measured after 240 mins by LC-MS analysis; assay type: ADME, organism-based; settings: read-out: logBB (converted)
[29] = Acute toxicity in Kunming mouse assessed as pathological changes in lung at 600 mg/kg, ip measured after 24 hrs by H and E staining analysis; assay type: organism-based; settings: in vivo
[30] = Acute toxicity in Kunming mouse assessed as pathological changes in kidney at 600 mg/kg, ip measured after 24 hrs by H and E staining analysis; assay type: organism-based; settings: in vivo
[31] = Antitumor activity against human U-87 MG cells xenografted in BALB/c mouse assessed as tumor growth inhibition at 10 mg/kg,ip bid for 1 month; assay type: functional, U-87MG ATCC; settings: 730 h, time 1 months, read-out: TGI
[32] = system: U-87MG ATCC; experiment: Antitumor activity against human U-87 MG cells xenografted in BALB/c mouse assessed assessed as inhibition of tumor cell proliferation at 10 mg/kg,ip bid for 1 month by Ki67 staining based immunohistochemical analysis; assay type: functional, organism-based; settings: time 1.0 months
[33] = system: U-87MG ATCC; experiment: Downregulation of CDK4 gene expression in human U-87 MG cells at 0.075 to 1.2 uM measured after 72 hrs by western blot analysis; assay type: functional, cell-based; settings: dose 0.075-1.2 µM

SMILES: COCCN1CCN(c2ccc(F)cc2C(=O)Nc2ccc(CNC(=O)OCc3cccnc3)cc2)CC1
- IC50 [1]: 1280 nM
- Activity [2]: Tde
- Activity [3]: Dde
- Activity [4]: Dde
- Activity [5]: Dde
- Activity [6]: Dde
- Activity [7]: Active
- viability at 1.2 µM [8]: 70.3%
- Activity [9]: 9.97%
- Activity [10]: 1.76%
- Activity [11]: 2.76%
- Activity [12]: 0.33%
- Activity [13]: 0.95%
- Activity [14]: 0.34%
- Activity [15]: 4.81%
- viability at 0.375 µM [16]: 95.9%
- Activity [17]: 1.61%
- viability at 1.5 µM [18]: 93.7%
- Activity [19]: 2.9%
- Activity [20]: Dde
- Activity [21]: Dde
- Activity [22]: Dde
- Activity [23]: Dde
- Activity [24]: Dde
- Activity [25]: Dde
- Cmax [26]: 92.5 µg/mL
- AUC(0-t) at 4 h [27]: 97000 ng·h/mL
- Kp at 4 h [28]: 1.07
- Activity [29]: Non-Toxic
- Activity [30]: Non-Toxic
- inhibition in vivo at 10 mg/kg [31]: 70.5%
- Activity [32]: Active
- Activity [33]: Active
